Key:
[1] = tested on: enzyme associated with Bacillus stearothermophilus spores; experiment: Rapid enzyme fluorescence readout of dual rapid readout indicators after prevacuum steam sterilization; type: biochemical; settings: 4-pulse prevacuum steam 121° C.; for FLUORESCENCE - PERCENT POSITIVE 1 HR / FLUORESCENCE - PERCENT POSITIVE 2 HR / FLUORESCENCE - PERCENT POSITIVE 3 HR / FLUORESCENCE - PERCENT POSITIVE 4 HR / FLUORESCENCE - PERCENT POSITIVE 5 HR / FLUORESCENCE - PERCENT POSITIVE 6 HR: 7–13 min
Method: (§1) The indicators prepared for the Examples were dual rapid readout indicators that provided both a rapid, enzyme-based efficacy test and a confirmatory spore outgrowth test. Spores coated on the carrier strip 16 served as the source of active enzyme whose activity was measured by the rapid enzyme test. These same spores were then incubated in the spore outgrowth portion of the test.
(§2) Bacillus stearothermophilus, commercially available as ATCC 7953 from American Type Culture Collection, Rockville, Md., was grown overnight (16 hours) at 58° C. in tryptic soy broth. This culture was used to inoculate the surface of agar plates consisting of 8 g/l nutrient broth, 4 g/l yeast extract, 0.1 g/l manganese chloride and 20 g/l agar at pH 7.2. Plates were incubated at 58° C. for 72 hours. Spores were scraped from the plates and suspended in sterile distilled water. The spores were separated from the vegetative debris by centrifuging the suspension at 7000 rpm and 4° C. for 20 minutes. The supernatant was poured off and the spores were resuspended in sterile distilled water. The cleaning procedure was repeated several times. After the final wash, the spores were suspended in sterile distilled water, at a concentration of approximately 1×10^8 spores per milliliter.
(§3) The spores were then treated with the chemicals identified in Tables 1–5. All chemicals tested were obtained from commercial sources. The spores were centrifuged at 6000 rpm for 10 minutes. The supernatant and coating chemical mixtures were heated at 60–80° C. for several minutes and vortexed to get the material into solution. The spores were then mixed into the sterilant-resistant chemical solution. The sterilant-resistant chemical solution was applied to 5×25 mm, 591 A paper strips (Schleicher & Schuell, Inc., Keene, N.H.) by pipetting 10–15 microliters to each strip for a final population of about 1×10^6 spores per strip. The strips were dried 16 hours at 37° C.
(§4) The treated spore strips were placed on the bottom of the outer container 12 of the indicator 10 and a barrier was inserted between the spore strip 16 and the inner container 18, which contained enzyme substrate. A […] ( 11/16 inch) disc of polypropylene blown microfiber material, with a weight of 200 g/m^2, commercially available as “THINSULATE™ 200-B brand Thermal Insulation” from 3M Company, St. Paul, Minn., was used as the barrier. The inner container 18 contained 0.67 ml nutrient medium, consisting of 17 g of a bacteriological peptone and a 0.17 g/l of L-alanine, as well as 0.1 g 4-methylumbelliferyl-alpha-D-glucoside, commercially available from Sigma Chemical Company, St. Louis, Mo., dissolved in 200 microliters of N,N-dimethylformamide, and 0.03 g bromocresol purple pH indicator dye, per liter of water. The pH of the enzyme substrate and nutrient medium solution was adjusted to 7.6 with 0.1N sodium hydroxide.
(§5) Sterilization indicators were made as described above with each of the chemicals and concentrations described in Table 1. Control indicators were made using untreated spores. The indicators were placed in metal instrument trays and exposed at 121° C. in a Getinge Steam Sterilizer (Getinge International, Inc., 1100 Towbin Ave., Lakewood, N.J.) using a 4-pulse prevacuum cycle at 121° C. with a vacuum level of 0.075–0.085 bar and a steam pulse to 1.00 bar for each pulse. Indicators were exposed in the sterilizer for between 7 and 13 minutes. This cycle is depicted in the time-pressure diagram in FIG. 5. After exposure the inner containers containing the enzyme substrate and nutrient medium were crushed and the indicators were incubated at 60° C. The indicators were examined for fluorescence using a 3M™ ATTEST™ Model 190 Rapid Autoreader, commercially available from 3M Company, St. Paul, Minn. Additionally, spore growth, as indicated by a color change from purple to yellow, was determined visually after 168 hours of incubation at 60° C. […]

[2] = tested on: Bacillus stearothermophilus spores; experiment: Spore outgrowth (color change) of indicators after prevacuum steam sterilization; type: cell-based; settings: 4-pulse prevacuum steam 121° C., 7–13 min
Method: as §1, §2, §3, §4, §5

POE(60) Sorbitol Tetrastearate
FLUORESCENCE - PERCENT POSITIVE 1 HR ([1]; Example 5, 50 mg/ml coating): 0%
FLUORESCENCE - PERCENT POSITIVE 2 HR ([1]; Example 5, 50 mg/ml coating): 0%
FLUORESCENCE - PERCENT POSITIVE 3 HR ([1]; Example 5, 50 mg/ml coating): 0%
FLUORESCENCE - PERCENT POSITIVE 4 HR ([1]; Example 5, 50 mg/ml coating): 0%
NO. GROWTH POSITIVE 168 HR ([2]; Example 5, 50 mg/ml coating): 5

POE(5) Glyceryl Monooleate
FLUORESCENCE - PERCENT POSITIVE 1 HR ([1]; Example 5, 50 mg/ml coating): 0%
FLUORESCENCE - PERCENT POSITIVE 2 HR ([1]; Example 5, 50 mg/ml coating): 0%
FLUORESCENCE - PERCENT POSITIVE 3 HR ([1]; Example 5, 50 mg/ml coating): 0%
FLUORESCENCE - PERCENT POSITIVE 4 HR ([1]; Example 5, 50 mg/ml coating): 0%
FLUORESCENCE - PERCENT POSITIVE 1 HR ([1]; Example 5, 100 mg/ml coating): 0%
FLUORESCENCE - PERCENT POSITIVE 2 HR ([1]; Example 5, 100 mg/ml coating): 0%
FLUORESCENCE - PERCENT POSITIVE 3 HR ([1]; Example 5, 100 mg/ml coating): 0%
FLUORESCENCE - PERCENT POSITIVE 4 HR ([1]; Example 5, 100 mg/ml coating): 0%
NO. GROWTH POSITIVE 168 HR ([2]; Example 5, 50 mg/ml coating): 2
NO. GROWTH POSITIVE 168 HR ([2]; Example 5, 100 mg/ml coating): 2

OCC(O)COCC(O)COCC(O)COCC(O)COCC(O)COCC(O)CO (stereo not shown) [Hexaglycerol]
accuracy of sterilization indicators compared to indicators made with untreated spores [1]: did not improve the accuracy
FLUORESCENCE - PERCENT POSITIVE 1 HR ([1]; Example 2, 5 mg/ml coating): 0%
FLUORESCENCE - PERCENT POSITIVE 2 HR ([1]; Example 2, 5 mg/ml coating): 0%
FLUORESCENCE - PERCENT POSITIVE 3 HR ([1]; Example 2, 5 mg/ml coating): 0%
FLUORESCENCE - PERCENT POSITIVE 4 HR ([1]; Example 2, 5 mg/ml coating): 9.1%
FLUORESCENCE - PERCENT POSITIVE 5 HR ([1]; Example 2, 5 mg/ml coating): 45.5%
FLUORESCENCE - PERCENT POSITIVE 6 HR ([1]; Example 2, 5 mg/ml coating): 63.6%
FLUORESCENCE - PERCENT POSITIVE 1 HR ([1]; Example 2, 10 mg/ml coating): 0%
FLUORESCENCE - PERCENT POSITIVE 2 HR ([1]; Example 2, 10 mg/ml coating): 0%
FLUORESCENCE - PERCENT POSITIVE 3 HR ([1]; Example 2, 10 mg/ml coating): 5.0%
FLUORESCENCE - PERCENT POSITIVE 4 HR ([1]; Example 2, 10 mg/ml coating): 15.0%
FLUORESCENCE - PERCENT POSITIVE 5 HR ([1]; Example 2, 10 mg/ml coating): 35.0%
FLUORESCENCE - PERCENT POSITIVE 6 HR ([1]; Example 2, 10 mg/ml coating): 50.0%
FLUORESCENCE - PERCENT POSITIVE 1 HR ([1]; Example 2, 20 mg/ml coating): 0%
FLUORESCENCE - PERCENT POSITIVE 2 HR ([1]; Example 2, 20 mg/ml coating): 0%
FLUORESCENCE - PERCENT POSITIVE 3 HR ([1]; Example 2, 20 mg/ml coating): 11.1%
FLUORESCENCE - PERCENT POSITIVE 4 HR ([1]; Example 2, 20 mg/ml coating): 38.9%
FLUORESCENCE - PERCENT POSITIVE 5 HR ([1]; Example 2, 20 mg/ml coating): 50.0%
FLUORESCENCE - PERCENT POSITIVE 6 HR ([1]; Example 2, 20 mg/ml coating): 61.1%
FLUORESCENCE - PERCENT POSITIVE 1 HR ([1]; Example 2, 40 mg/ml coating): 0%
FLUORESCENCE - PERCENT POSITIVE 2 HR ([1]; Example 2, 40 mg/ml coating): 0%
FLUORESCENCE - PERCENT POSITIVE 3 HR ([1]; Example 2, 40 mg/ml coating): 26.9%
FLUORESCENCE - PERCENT POSITIVE 4 HR ([1]; Example 2, 40 mg/ml coating): 46.2%
FLUORESCENCE - PERCENT POSITIVE 5 HR ([1]; Example 2, 40 mg/ml coating): 53.8%
FLUORESCENCE - PERCENT POSITIVE 6 HR ([1]; Example 2, 40 mg/ml coating): 61.5%
FLUORESCENCE - PERCENT POSITIVE 1 HR ([1]; Example 2, 80 mg/ml coating): 0%
FLUORESCENCE - PERCENT POSITIVE 2 HR ([1]; Example 2, 80 mg/ml coating): 0%
FLUORESCENCE - PERCENT POSITIVE 3 HR ([1]; Example 2, 80 mg/ml coating): 37.5%
FLUORESCENCE - PERCENT POSITIVE 4 HR ([1]; Example 2, 80 mg/ml coating): 58.3%
FLUORESCENCE - PERCENT POSITIVE 5 HR ([1]; Example 2, 80 mg/ml coating): 70.8%
FLUORESCENCE - PERCENT POSITIVE 6 HR ([1]; Example 2, 80 mg/ml coating): 70.8%
NO. GROWTH POSITIVE 168 HR ([2]; Example 2, 5 mg/ml coating): 11
NO. GROWTH POSITIVE 168 HR ([2]; Example 2, 10 mg/ml coating): 20
NO. GROWTH POSITIVE 168 HR ([2]; Example 2, 20 mg/ml coating): 18
NO. GROWTH POSITIVE 168 HR ([2]; Example 2, 40 mg/ml coating): 26
NO. GROWTH POSITIVE 168 HR ([2]; Example 2, 80 mg/ml coating): 24

POE(15) Glyceryl Monostearate
FLUORESCENCE - PERCENT POSITIVE 1 HR ([1]; Example 5, 50 mg/ml coating): 0%
FLUORESCENCE - PERCENT POSITIVE 2 HR ([1]; Example 5, 50 mg/ml coating): 0%
FLUORESCENCE - PERCENT POSITIVE 3 HR ([1]; Example 5, 50 mg/ml coating): 42.9%
FLUORESCENCE - PERCENT POSITIVE 4 HR ([1]; Example 5, 50 mg/ml coating): 57.1%
FLUORESCENCE - PERCENT POSITIVE 1 HR ([1]; Example 5, 100 mg/ml coating): 0%
FLUORESCENCE - PERCENT POSITIVE 2 HR ([1]; Example 5, 100 mg/ml coating): 0%
FLUORESCENCE - PERCENT POSITIVE 3 HR ([1]; Example 5, 100 mg/ml coating): 0%
FLUORESCENCE - PERCENT POSITIVE 4 HR ([1]; Example 5, 100 mg/ml coating): 0%
NO. GROWTH POSITIVE 168 HR ([2]; Example 5, 50 mg/ml coating): 7
NO. GROWTH POSITIVE 168 HR ([2]; Example 5, 100 mg/ml coating): 4
